The values that follow come from US11958846B2, “Urea compounds and compositions as SMARCA2/BRM ATPase inhibitors” (Novartis AG, priority 2018, dated 2024).

The structures appear in SMILES notation.

In assay [1] the target is Brm ATPase-SnAC (636-1331) (Homo sapiens, UniProt P51531). Nature of the assay: BRM ATPase Inhibition Assay (ADP-Glo). In kind it is biochemical. The following applies: 5 nM BRM ATPase-SnAC, 85 μM ATP, 2 nM pCMV-dR8.91 plasmid, 60 min RT. The method, then: BRM ATPase Inhibition Assay
(§1) Compound inhibition of ATPase activity of Brm ATPase-SnAC (636-1331) was measured by using the ADP-Glo assay kit from Promega (V6930). 120 nL of compound in 100% DMSO were transferred to a white 384 well microtiter assay plate using an ATS Acoustic Transfer System from EDC Biosystems. All subsequent reagent additions were performed using a MultiFlo FX Multi-Mode Dispenser. Assay buffer was 20 mM HEPES pH 7.5, 1 mM MgCl2, 20 mM KCl, 1 mM DTT, 0.01% BSA, 0.005% Tween 20. 4 μL of 7.5 nM Brm ATPase-SnAC in assay buffer was added to the assay plate and incubated at RT for 5 min with compound. 2 μL of 255 μM ATP and 6 nM pCMV-dR8.91 plasmid in assay buffer was added to assay plate to initiate the reaction. The final concentrations of reagents were 5 nM BRM ATPase-SnAC, 85 μM ATP, and 2 nM pCMV-dR8.91 plasmid. The ATPase reaction was incubated at RT for 60 min. 3 μL of ADP-Glo reagent was added to stop the reaction and was incubated for 30 min at RT. 3 μL of Kinase detection reagent was added to the assay plate which was incubated for 90 min at RT. Plates were read with a 2103 Multilabel Envision reader using ultrasensitive luminescence detection. IC50 values were determined from the average of duplicate data points by non-linear regression analysis of percent inhibition values plotted versus compound concentration.
(§2) pCMV-dR8.91 Plasmid Used for BRM/BRG1 ATPase Inhibition Assays:
(§3) The plasmid template pCMV-dR8.91 (see sequence below) is propagated using One Shot Stbl3 Chemically Competent E. coli (Catalog Number C73C7303, Invitrogen/Thermo Fisher Scientific) following the transformation protocol provided with the reagent. Transformed bacterial colonies are then selected on LB agar plates containing ampicillin/carbenicllin antibiotic selection medium (Catalog Number L1010, Teknova). Bacterial colonies are grown in LB liquid broth (Catalog number 10855001, Invitrogen) containing ampicillin at 100 micrograms/mL and plasmid DNA isolated according to required scale according to the manufacturers protocol provided with the Qiagen Plasmid Isolation Kits (Maxi prep, Product Id Number 10063).
For orientation: In ADP-Glo the light output rises with the ADP produced.

Assay [2] deals with Brg1 ATPase-SnAC (658-1361) (Homo sapiens (Human), UniProt P51532). Kind of assay: BRG1 ATPase Inhibition Assay (ADP-Glo). The following applies: 5 nM Brg1 ATPase-SnAC, 65 μM ATP, 2 nM pCMV-dR8.91 plasmid, 60 min RT. In kind it is biochemical. The method, then:
BRG1 ATPase Inhibition Assay
BRG1 ATPase Inhibition Activity
as §1, with “Brg1” for “Brm”, “(658-1361)” for “(636-1331)”, “195” for “255”, “Brg1” for “BRM”, “65” for “85”
as §2, §3

Chain of Brg1 ATPase-SnAC (658-1361) (P51532 other isoform, or with tags, fused parts or gaps): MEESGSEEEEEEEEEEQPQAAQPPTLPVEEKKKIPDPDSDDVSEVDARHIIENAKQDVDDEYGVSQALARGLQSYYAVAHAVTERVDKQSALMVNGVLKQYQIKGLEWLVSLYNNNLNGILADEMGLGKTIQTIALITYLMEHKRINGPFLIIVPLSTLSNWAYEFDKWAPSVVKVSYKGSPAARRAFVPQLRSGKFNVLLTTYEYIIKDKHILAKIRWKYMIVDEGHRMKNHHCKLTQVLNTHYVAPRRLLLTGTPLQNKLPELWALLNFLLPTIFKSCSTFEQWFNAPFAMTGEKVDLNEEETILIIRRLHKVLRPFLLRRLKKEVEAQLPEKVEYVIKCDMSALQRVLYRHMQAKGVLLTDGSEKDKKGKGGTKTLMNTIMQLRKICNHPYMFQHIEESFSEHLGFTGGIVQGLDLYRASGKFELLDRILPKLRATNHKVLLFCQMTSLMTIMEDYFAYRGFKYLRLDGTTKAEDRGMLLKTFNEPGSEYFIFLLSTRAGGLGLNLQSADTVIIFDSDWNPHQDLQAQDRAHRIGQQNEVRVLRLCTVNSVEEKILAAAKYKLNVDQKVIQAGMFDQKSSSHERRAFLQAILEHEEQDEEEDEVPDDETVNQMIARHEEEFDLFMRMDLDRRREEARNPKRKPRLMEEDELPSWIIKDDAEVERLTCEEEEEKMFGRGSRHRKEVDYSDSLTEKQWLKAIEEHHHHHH
Chain of Brm ATPase-SnAC (636-1331) (P51531 whole entry, looked up): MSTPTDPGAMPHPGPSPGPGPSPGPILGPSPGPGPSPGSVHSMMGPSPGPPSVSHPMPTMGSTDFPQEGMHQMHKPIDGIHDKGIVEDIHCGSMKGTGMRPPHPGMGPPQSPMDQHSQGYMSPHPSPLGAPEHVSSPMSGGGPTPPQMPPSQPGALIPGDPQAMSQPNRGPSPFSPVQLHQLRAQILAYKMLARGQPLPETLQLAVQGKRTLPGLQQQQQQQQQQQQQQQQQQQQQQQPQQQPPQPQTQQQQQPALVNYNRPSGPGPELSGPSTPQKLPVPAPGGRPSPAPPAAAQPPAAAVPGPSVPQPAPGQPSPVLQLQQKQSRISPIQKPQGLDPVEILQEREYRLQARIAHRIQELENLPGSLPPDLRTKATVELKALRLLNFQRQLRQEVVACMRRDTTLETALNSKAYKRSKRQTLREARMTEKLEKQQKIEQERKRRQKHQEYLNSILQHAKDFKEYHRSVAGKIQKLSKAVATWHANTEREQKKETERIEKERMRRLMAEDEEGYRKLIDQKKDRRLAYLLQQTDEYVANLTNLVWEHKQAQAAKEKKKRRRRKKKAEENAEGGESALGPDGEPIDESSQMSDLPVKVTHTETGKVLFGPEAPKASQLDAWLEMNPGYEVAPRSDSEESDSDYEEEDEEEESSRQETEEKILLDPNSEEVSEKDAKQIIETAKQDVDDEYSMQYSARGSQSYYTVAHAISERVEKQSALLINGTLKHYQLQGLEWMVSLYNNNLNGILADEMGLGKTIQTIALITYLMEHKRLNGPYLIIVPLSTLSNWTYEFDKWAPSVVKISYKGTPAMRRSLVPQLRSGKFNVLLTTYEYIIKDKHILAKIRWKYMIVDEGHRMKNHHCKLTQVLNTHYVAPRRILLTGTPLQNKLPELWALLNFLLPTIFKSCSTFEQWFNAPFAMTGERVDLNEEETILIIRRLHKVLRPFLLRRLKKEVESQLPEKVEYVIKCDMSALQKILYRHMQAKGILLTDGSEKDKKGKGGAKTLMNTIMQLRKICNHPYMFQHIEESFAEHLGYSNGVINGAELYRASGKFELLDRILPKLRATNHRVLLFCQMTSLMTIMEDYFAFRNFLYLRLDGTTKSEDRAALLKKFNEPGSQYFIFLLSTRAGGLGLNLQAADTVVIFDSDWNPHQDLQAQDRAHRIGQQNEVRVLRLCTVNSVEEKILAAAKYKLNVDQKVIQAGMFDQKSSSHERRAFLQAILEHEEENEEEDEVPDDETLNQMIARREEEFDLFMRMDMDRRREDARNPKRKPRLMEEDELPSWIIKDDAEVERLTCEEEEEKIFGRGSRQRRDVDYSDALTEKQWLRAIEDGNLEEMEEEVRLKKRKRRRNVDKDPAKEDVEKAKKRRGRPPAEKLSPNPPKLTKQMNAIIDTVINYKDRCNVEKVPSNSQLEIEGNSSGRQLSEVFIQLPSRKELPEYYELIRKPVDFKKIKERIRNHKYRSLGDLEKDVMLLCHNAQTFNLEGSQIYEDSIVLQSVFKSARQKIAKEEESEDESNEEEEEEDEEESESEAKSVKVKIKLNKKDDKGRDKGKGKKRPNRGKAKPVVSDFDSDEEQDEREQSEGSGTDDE

Regarding `Nc1cnc(Cl)cc1NC(=O)Nc1cc(C(F)F)ns1` [Example 4, 1-(5-amino-2-chloropyridin-4-yl)-3-(3-(difluoromethyl)isothiazol-5-yl)urea], the IC50 in assay [1] and in assay [2] was < 5 nM each time.
`Nc1cnc(F)cc1NC(=O)Nc1cc(C(F)F)ns1` [Example 6, 1-(5-amino-2-fluoropyridin-4-yl)-3-(3-(difluoromethyl)isothiazol-5-yl)urea]: the IC50 in assay [1] and in assay [2] was < 5 nM throughout.
As for `Cc1cc(NC(=O)Nc2ccnc(Cl)c2)sn1` [Example 2, 1-(2-chloropyridin-4-yl)-3-(3-methylisothiazol-5-yl)urea], the IC50 worked out at 33 nM in assay [1] and 30 nM in assay [2].
On to `O=C(Nc1cc(C(F)F)ns1)Nc1cc(F)ncc1CO` [Example 7, 1-(3-(difluoromethyl)isothiazol-5-yl)-3-(2-fluoro-5-(hydroxymethyl)pyridin-4-yl)urea], for which the IC50 in assay [1] and in assay [2] was < 5 nM each time.
`O=C(Nc1ccnc(Cl)c1)Nc1cc(C(F)F)ns1` [Example 1, 1-(2-chloropyridin-4-yl)-3-(3-(difluoromethyl)isothiazol-5-yl)urea]: the IC50 in assay [1] came out at 5 nM; in assay [2], 6 nM.
Take `O=C(Nc1cc(C(F)F)ns1)Nc1ccnc(F)c1CO` [Example 8, 1-(3-(difluoromethyl)isothiazol-5-yl)-3-(2-fluoro-3-(hydroxymethyl)pyridin-4-yl)urea]: the half-maximal inhibitory concentration (IC50) is 90 nM in assay [1] and 19 nM in assay [2].
The matching figures for `O=C(Nc1cc(C(F)F)ns1)Nc1cc(Cl)ncc1CO` [Example 5, 1-(2-chloro-5-(hydroxymethyl)pyridin-4-yl)-3-(3-(difluoromethyl)isothiazol-5-yl)urea]: < 5 nM and < 5 nM.

What is called IC50 is the concentration needed to halve the response being measured.
